# Data taken from patent US20100168102A9, “Amide Derivatives as Kinase Inhibitors” (Devgen NV, priority 2005, published 2010).
# Tests used:
# PKC epsilon = target: T1, PKC epsilon (Homo sapiens, UniProt Q02156); assay: Biochemical assay for PKC epsilon (fluorescence polarization, Protein Kinase C Assay Kit, Red); conditions: Table 2, compounds of Formula XIII; read-out: IC50 μM PKCε
# T1 construct: purchased Invitrogen P2282
# T1 sequence (Q02156 1-737): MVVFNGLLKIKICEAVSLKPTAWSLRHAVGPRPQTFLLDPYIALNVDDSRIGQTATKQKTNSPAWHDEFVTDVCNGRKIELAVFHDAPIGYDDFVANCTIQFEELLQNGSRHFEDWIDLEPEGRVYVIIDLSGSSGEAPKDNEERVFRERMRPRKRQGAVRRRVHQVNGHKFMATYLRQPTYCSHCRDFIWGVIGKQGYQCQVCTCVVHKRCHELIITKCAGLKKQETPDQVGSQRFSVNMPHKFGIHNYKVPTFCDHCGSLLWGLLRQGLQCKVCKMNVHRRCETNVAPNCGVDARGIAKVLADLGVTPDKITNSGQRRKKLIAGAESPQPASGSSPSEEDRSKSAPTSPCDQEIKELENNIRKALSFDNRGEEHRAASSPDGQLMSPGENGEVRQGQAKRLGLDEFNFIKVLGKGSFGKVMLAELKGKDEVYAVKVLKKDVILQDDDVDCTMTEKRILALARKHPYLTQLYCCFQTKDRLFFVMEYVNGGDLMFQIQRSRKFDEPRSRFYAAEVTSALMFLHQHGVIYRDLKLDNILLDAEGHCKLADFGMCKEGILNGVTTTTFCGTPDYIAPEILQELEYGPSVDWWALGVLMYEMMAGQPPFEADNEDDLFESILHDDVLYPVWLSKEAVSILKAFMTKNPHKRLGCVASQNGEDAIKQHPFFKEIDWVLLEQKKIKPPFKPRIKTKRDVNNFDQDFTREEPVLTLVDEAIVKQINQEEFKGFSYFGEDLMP
# Procedure, shortened: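 PKC epsilon at 10 ng/ml final was preincubated 30 min at room temperature with compound in HEPES pH 7.4 with DTT and Triton X-100. ATP/protein substrate was then added in buffer with MgCl2 and CaCl2 for 80 min. The reaction was stopped with EDTA, phosphorylation was detected by fluorescence polarization with rhodamine tracer and anti-phosphoserine antibody, and IC50 values came from curve fits.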
# human ROCKα/ROCKII mix = target: T2, human ROCKα/ROCKII mix (Homo sapiens, UniProt O75116); assay: Biochemical assay for ROCK (fluorescence polarization, ROCK IMAP Kit); conditions: Table 2, compounds of Formula XIII
# T2 construct: purchased Upstate Biotechnology 14-451
# T2 sequence (O75116 11-552 limits assumed): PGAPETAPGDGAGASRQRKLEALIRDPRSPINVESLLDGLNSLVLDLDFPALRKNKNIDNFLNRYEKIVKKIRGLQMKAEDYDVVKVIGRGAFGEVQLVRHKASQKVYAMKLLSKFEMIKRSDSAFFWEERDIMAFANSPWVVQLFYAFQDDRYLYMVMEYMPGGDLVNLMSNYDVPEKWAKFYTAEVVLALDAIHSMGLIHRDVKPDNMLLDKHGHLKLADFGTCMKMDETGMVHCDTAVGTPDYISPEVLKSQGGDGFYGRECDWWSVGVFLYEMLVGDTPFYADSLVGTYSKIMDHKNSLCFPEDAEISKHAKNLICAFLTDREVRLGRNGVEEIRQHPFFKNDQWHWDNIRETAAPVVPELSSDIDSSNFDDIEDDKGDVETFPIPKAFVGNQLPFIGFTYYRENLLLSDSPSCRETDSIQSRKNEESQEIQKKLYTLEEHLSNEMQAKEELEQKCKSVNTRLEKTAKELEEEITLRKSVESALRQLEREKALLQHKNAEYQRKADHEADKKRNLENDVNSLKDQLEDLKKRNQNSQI
SMILES,IC50 (PKC epsilon) [µM],IC50 (human ROCKα/ROCKII mix) [µM]
"NC(CNC(=O)c1ccc(-c2ccccc2)cc1)c1ccc(C(=O)Nc2ccncc2)cc1 (stereo not shown) [Compound 88, Biphenyl-4-carboxylic acid {2-amino-2-[4-(pyridin-4-ylcarbamoyl)-phenyl]-ethyl}-amide]",5 to 50,0.5 to 5
"NC(CNC(=O)c1cccc(Cl)c1)c1ccc(C(=O)Nc2ccncc2)cc1 (stereo not shown) [Compound 89, 4-[1-amino-2-(3-chloro-benzoylamino)-ethyl]-N-pyridin-4-yl-benzamide]",0.5 to 5,0.5 to 5
"NC(CNC(=O)c1cccc(Br)c1)c1ccc(C(=O)Nc2ccncc2)cc1 (stereo not shown) [Compound 91, 4-[1-amino-2-(3-bromo-benzoylamino)-ethyl]-N-pyridin-4-yl-benzamide]",0.5 to 5,0.5 to 5
"NC(CNC(=O)c1ccc(F)cc1)c1ccc(C(=O)Nc2ccncc2)cc1 (stereo not shown) [Compound 93, 4-[1-amino-2-(4-fluoro-benzoylamino)-ethyl]-N-pyridin-4-yl-benzamide]",0.5 to 5,0.5 to 5
"CS(=O)(=O)c1cccc(C(=O)NCC(N)c2ccc(C(=O)Nc3ccncc3)cc2)c1 (stereo not shown) [Compound 96, 4-[1-amino-2-(3-methanesulfonyl-benzoylamino)-ethyl]-N-pyridin-4-yl-benzamide]",0.5 to 5,0.5 to 5
"NC(CNC(=O)c1cccc(S(=O)(=O)Nc2ccccc2)c1)c1ccc(C(=O)Nc2ccncc2)cc1 (stereo not shown) [Compound 99, 4-[1-amino-2-(3-phenylsulfamoyl-benzoylamino)-ethyl]-N-pyridin-4-yl-benzamide]",0.5 to 5,0.5 to 5
"NC(CNC(=O)c1ccncc1)c1ccc(C(=O)Nc2ccncc2)cc1 (stereo not shown) [Compound 104, N-{2-Amino-2-[4-(pyridin-4-ylcarbamoyl)-phenyl]-ethyl}-isonicotinamide]",5 to 50,0.5 to 5
"NC(CNC(=O)c1ccccn1)c1ccc(C(=O)Nc2ccncc2)cc1 (stereo not shown) [Compound 105, Pyridine-2-carboxylic acid {2-amino-2-[4-(pyridin-4-ylcarbamoyl)-phenyl]-ethyl}-amide]",5 to 50,0.5 to 5
"NC(CNC(=O)c1cnccn1)c1ccc(C(=O)Nc2ccncc2)cc1 (stereo not shown) [Compound 108, Pyrazine-2-carboxylic acid {2-amino-2-[4-(pyridin-4-ylcarbamoyl)-phenyl]-ethyl}-amide]",5 to 50,0.5 to 5
"NC(CNC(=O)c1nccc2ccccc12)c1ccc(C(=O)Nc2ccncc2)cc1 (stereo not shown) [Compound 110, Isoquinoline-1-carboxylic acid {2-amino-2-[4-(pyridin-4-ylcarbamoyl)-phenyl]-ethyl}-amide]",0.5 to 5,0.5 to 5
"NC(CNC(=O)c1ccc2ncccc2c1)c1ccc(C(=O)Nc2ccncc2)cc1 (stereo not shown) [Compound 114, Quinoline-6-carboxylic acid {2-amino-2-[4-(pyridin-4-ylcarbamoyl)-phenyl]-ethyl}-amide]",5 to 50,0.5 to 5
"Cc1ccc(C(=O)NCC(N)c2ccc(C(=O)Nc3ccncc3)cc2)s1 (stereo not shown) [Compound 117, 5-Methyl-thiophene-2-carboxylic acid {2-amino-2-[4-(pyridin-4-ylcarbamoyl)-phenyl]-ethyl}-amide]",0.5 to 5,0.5 to 5
"CC(=NOC(C)(C)C)c1ccc(C(=O)NCC(N)c2ccc(C(=O)Nc3ccncc3)cc2)s1 (stereo not shown) [Compound 118, 5-(1-tert-Butoxyimino-ethyl)-thiophene-2-carboxylic acid {2-amino-2-[4-(pyridin-4-ylcarbamoyl)-phenyl]-ethyl}-amide]",5 to 50,0.5 to 5
"NC(CNC(=O)c1ccoc1)c1ccc(C(=O)Nc2ccncc2)cc1 (stereo not shown) [Compound 119, Furan-3-carboxylic acid {2-amino-2-[4-(pyridin-4-ylcarbamoyl)-phenyl]-ethyl}-amide]",0.5 to 5,0.05 to 0.5

# Second part, the molecule after the results:
IC50 (PKC epsilon) [µM],IC50 (human ROCKα/ROCKII mix) [µM],SMILES
5 to 50,0.5 to 5,"Cc1ccc(C(=O)NCC(N)c2ccc(C(=O)Nc3ccncc3)cc2)cc1 (stereo not shown) [Compound 86, 4-[1-amino-2-(4-methyl-benzoylamino)-ethyl]-N-pyridin-4-yl-benzamide]"
0.5 to 5,0.5 to 5,"NC(CNC(=O)c1ccccc1-c1ccccc1)c1ccc(C(=O)Nc2ccncc2)cc1 (stereo not shown) [Compound 87, Biphenyl-2-carboxylic acid {2-amino-2-[4-(pyridin-4-ylcarbamoyl)-phenyl]-ethyl}-amide]"
5 to 50,0.5 to 5,"NC(CNC(=O)c1ccc(Cl)cc1)c1ccc(C(=O)Nc2ccncc2)cc1 (stereo not shown) [Compound 90, 4-[1-amino-2-(4-chloro-benzoylamino)-ethyl]-N-pyridin-4-yl-benzamide]"
0.5 to 5,0.5 to 5,"NC(CNC(=O)c1cccc(F)c1)c1ccc(C(=O)Nc2ccncc2)cc1 (stereo not shown) [Compound 92, 4-[1-amino-2-(3-fluoro-benzoylamino)-ethyl]-N-pyridin-4-yl-benzamide]"
0.5 to 5,0.5 to 5,"N#Cc1cccc(C(=O)NCC(N)c2ccc(C(=O)Nc3ccncc3)cc2)c1 (stereo not shown) [Compound 94, 4-[1-amino-2-(3-cyano-benzoylamino)-ethyl]-N-pyridin-4-yl-benzamide]"
5 to 50,0.5 to 5,"N#Cc1ccc(C(=O)NCC(N)c2ccc(C(=O)Nc3ccncc3)cc2)cc1 (stereo not shown) [Compound 95, 4-[1-amino-2-(4-cyano-benzoylamino)-ethyl]-N-pyridin-4-yl-benzamide]"
0.5 to 5,0.5 to 5,"CCNS(=O)(=O)c1cccc(C(=O)NCC(N)c2ccc(C(=O)Nc3ccncc3)cc2)c1 (stereo not shown) [Compound 97, 4-[1-amino-2-(3-ethylsulfamoyl-benzoylamino)-ethyl]-N-pyridin-4-yl-benzamide]"
5 to 50,0.5 to 5,"CNS(=O)(=O)c1ccc(C(=O)NCC(N)c2ccc(C(=O)Nc3ccncc3)cc2)cc1 (stereo not shown) [Compound 98, 4-[1-amino-2-(4-methylsulfamoyl-benzoylamino)-ethyl]-N-pyridin-4-yl-benzamide]"
5 to 50,0.5 to 5,"NC(CNC(=O)c1ccc(C(=O)c2ccccc2)cc1)c1ccc(C(=O)Nc2ccncc2)cc1 (stereo not shown) [Compound 100, 4-[1-amino-2-(4-benzoyl-benzoylamino)-ethyl]-N-pyridin-4-yl-benzamide]"
0.5 to 5,0.5 to 5,"NC(CNC(=O)c1cccc(Cn2cccn2)c1)c1ccc(C(=O)Nc2ccncc2)cc1 (stereo not shown) [Compound 103, 4-{1-amino-2-[(3-pyrazol-1ylmethyl)-benzoylamino]-ethyl}-N-pyridin-4-yl-benzamide]"
0.5 to 5,0.5 to 5,"NC(CNC(=O)c1cccnc1)c1ccc(C(=O)Nc2ccncc2)cc1 (stereo not shown) [Compound 106, N-{2-Amino-2-[4-(pyridin-4-ylcarbamoyl)-phenyl]-ethyl}-nicotinamide]"
5 to 50,0.5 to 5,"NC(CNC(=O)c1ccc(=O)[nH]n1)c1ccc(C(=O)Nc2ccncc2)cc1 (stereo not shown) [Compound 109, 6-Oxo-1,6-dihydro-pyridazine-3-carboxylic acid {2-amino-2-[4-(pyridin-4-ylcarbamoyl)-phenyl]-ethyl}-amide]"
0.5 to 5,0.5 to 5,"NC(CNC(=O)c1ccnc2ccccc12)c1ccc(C(=O)Nc2ccncc2)cc1 (stereo not shown) [Compound 111, Quinoline-4-carboxylic acid {2-amino-2-[4-(pyridin-4-ylcarbamoyl)-phenyl]-ethyl}-amide]"
0.5 to 5,0.5 to 5,"NC(CNC(=O)c1cnnc2ccccc12)c1ccc(C(=O)Nc2ccncc2)cc1 (stereo not shown) [Compound 113, Cinnoline-4-carboxylic acid {2-amino-2-[4-(pyridin-4-ylcarbamoyl)-phenyl]-ethyl}-amide]"
0.5 to 5,0.05 to 0.5,"NC(CNC(=O)c1ccsc1)c1ccc(C(=O)Nc2ccncc2)cc1 (stereo not shown) [Compound 115, Thiophene-3-carboxylic acid {2-amino-2-[4-(pyridin-4-ylcarbamoyl)-phenyl]-ethyl}-amide]"
0.05 to 0.5,0.05 to 0.5,"NC(CNC(=O)c1cccs1)c1ccc(C(=O)Nc2ccncc2)cc1 (stereo not shown) [Compound 116, Thiophene-2-carboxylic acid {2-amino-2-[4-(pyridin-4-ylcarbamoyl)-phenyl]-ethyl}-amide]"
0.5 to 5,0.5 to 5,"NC(CNC(=O)c1ccc([N+](=O)[O-])o1)c1ccc(C(=O)Nc2ccncc2)cc1 (stereo not shown) [Compound 120, 5-Nitro-furan-2-carboxylic acid {2-amino-2-[4-(pyridin-4-ylcarbamoyl)-phenyl]-ethyl}-amide]"
0.5 to 5,0.5 to 5,"Cn1cccc1C(=O)NCC(N)c1ccc(C(=O)Nc2ccncc2)cc1 (stereo not shown) [Compound 121, 1-Methyl-1H-pyrrole-2-carboxylic acid {2-amino-2-[4-(pyridin-4-ylcarbamoyl)-phenyl]-ethyl}-amide]"
